Test results: patent US11267812B2 (Mirati Therapeutics, Inc., priority 2016, dated 2022)
Like-named read-outs stand apart in the source and are kept apart here.

Legend:
[1] = system: Phospho-ERK in NCI-H358 cells expressing KRas G12C; test: Cellular inhibition of KRas G12C by Phospho-ERK measurement in NCI-H358 cells; assay type: cell-based; details: Homo sapiens, read-out: IC50 (pERK(Thr202/Tyr204) normalized with GAPDH)
Summary of the method: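 After 8–12 h attachment, NCI-H358 cells were treated with compounds for 3 h (0.5% DMSO final), fixed, methanol-permeabilized and immunostained. pERK(Thr202/Tyr204) was read by infrared imaging and normalized to GAPDH as percent of DMSO control. IC50 came from a 4-parameter fit.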

[2] = biological target: KRas G12C (Homo sapiens, UniProt P01116, C118S/C51S/C80L/G12C); test: KRas G12C Modification Assay (LCMS detection of covalent adduct); assay type: binding; details: 5 μM compound, 3 hours
Protocol: A 10 μL aliquot of each protein solution was then transferred to a 384 well microtiter plate. Initial compound stocks were generated at fifty times their desired final assay concentration in DMSO.
Exemplary compounds of Formula (I) were diluted 25-fold into K-Ras Assay Buffer to a final of two times their final concentration. A 10 μL aliquot of each diluted compound solution was then added to each of the protein solutions in the microtiter plate to initiate reaction. […] At each time point, the reactions were quenched with 20 μL of a 25 mM acetic acid solution. […] Once all reactions were quenched, the plates were heat sealed and the samples were injected into a LC/MS system for data acquisition.
Samples were injected in their liquid phase onto a C-3 reverse phase column to remove assay buffer and prepare the samples for mass spectrometer. The proteins were eluted from the column using an acetonitrile gradient and fed directly into the mass analyzer. Initial raw data analysis took place in Agilent MassHunter software immediately post data acquisition.
Raw data analysis of the intact protein was exclusively a deconvolution of the multiple charge states of each protein in solution using a maximum entropy deconvolution provided in Mass Hunter. To minimize complexity, only the data over limited mass ranges were considered for analysis, with a minimum of one Dalton mass step intervals. The heights of all masses identified during raw data analysis were exported to be further analyzed in Spotfire® data analysis software.
Final data analysis was a multistep process in the Spotfire® data analysis software package. Briefly, each protein mass was calculated as a percent of the total signal of that sample, that percentage was then normalized to the percentage of signal of the protein in the absence of reactive compounds. Those normalized signals were reported as normalized percent of control (POC). […] Key: “A”≤25% POC; “B”>25% POC≤50% POC; “C”>50% POC and ND=not determined.

[3] = NCI-H358 cells, 3 hours compound treatment

| POC (normalized percent of control, KRas G12C modification) [2] | Structure (SMILES) | IC50 [1, 3] | IC50 ([1]; NCI-H358, 3 h) |
| --- | --- | --- | --- |
| C (“C”>50% POC) | C=CC(=O)N1CCN(c2nc(O[C@H](C)CN(C)CC)nc3c2CCN(c2cc(O)cc4ccccc24)C3)CC1 [Example 131, 1-[4-[2-[(1R)-2-[ethyl(methyl)amino]-1-methyl-ethoxy]-7-(3-hydroxy-1-naphthyl)-6,8-dihydro-5H-pyrido[3,4-d]pyrimidin-4-yl]piperazin-1-yl]prop-2-en-1-one] | 1 to 1000 nM |  |
| C (“C”>50% POC) | C=CC(=O)N1CCN(c2nc(OC[C@@H]3CCCN3C)nc3c2CCN(c2c(C)ccc4[nH]ncc24)C3)CC1CC#N (stereo partly drawn) [Example 148, 2-[4-[7-(5-methyl-1H-indazol-4-yl)-2-[[(2S)-1-methylpyrrolidin-2-yl]methoxy]-6,8-dihydro-5H-pyrido[3,4-d]pyrimidin-4-yl]-1-prop-2-enoyl-piperazin-2-yl]acetonitrile] | 1 to 1000 nM |  |
| B (“B”>25% POC≤50% POC) | C=CC(=O)N1CCN(c2nc(OC[C@@H]3CCCN3C)nc3c2CCN(c2c(C(F)(F)F)ccc4[nH]ncc24)C3)CC1CC#N (stereo partly drawn) [Example 149, 2-[4-[2-[[(2S)-1-methylpyrrolidin-2-yl]methoxy]-7-[5-(trifluoromethyl)-1H-indazol-4-yl]-6,8-dihydro-5H-pyrido[3,4-d]pyrimidin-4-yl]-1-prop-2-enoyl-piperazin-2-yl]acetonitrile] | 1 to 1000 nM |  |
| C (“C”>50% POC) | C=CC(=O)N1CCN(c2nc(OC[C@@H]3CCCN3C)nc3c2CCN(c2c(C)ccc4[nH]ncc24)C3)CC1 [Example 155, (S)-1-(4-(7-(5-methyl-1H-indazol-4-yl)-2-((1-methylpyrrolidin-2-yl)methoxy)-5,6,7,8-tetrahydropyrido[3,4-d]pyrimidin-4-yl)piperazin-1-yl)prop-2-en-1-one] | 1 to 1000 nM |  |
| C (“C”>50% POC) | C=CC(=O)N1CCN(c2nc(OCCN(C)C)nc3c2CCN(c2cc(O)cc4ccccc24)C3)CC1CC#N (stereo not drawn) [Example 170, 2-(1-acryloyl-4-(2-(2-(dimethylamino)ethoxy)-7-(3-hydroxynaphthalen-1-yl)-5,6,7,8-tetrahydropyrido[3,4-d]pyrimidin-4-yl)piperazin-2-yl)acetonitrile] | 1 to 1000 nM |  |
| C (“C”>50% POC) | C=CC(=O)N1CCN(c2nc(OCCCN3CCOCC3)nc3c2CCN(c2c(C)c(O)cc4ccccc24)C3)CC1 [Example 173, 1-(4-(7-(3-hydroxy-2-methylnaphthalen-1-yl)-2-(3-morpholinopropoxy)-5,6,7,8-tetrahydropyrido[3,4-d]pyrimidin-4-yl)piperazin-1-yl)prop-2-en-1-one] |  |  |
| C (“C”>50% POC) | C=CC(=O)N1CCN(c2nc(OC[C@@H]3CCCN3C)nc3c2CCN(c2c(C)c(O)cc4ccccc24)C3)CC1 [Example 175, (S)-1-(4-(7-(3-hydroxy-2-methylnaphthalen-1-yl)-2-((1-methylpyrrolidin-2-yl)methoxy)-5,6,7,8-tetrahydropyrido[3,4-d]pyrimidin-4-yl)piperazin-1-yl)prop-2-en-1-one] | 1 to 1000 nM |  |
| C (“C”>50% POC) | C=CC(=O)N1CCN(c2nc(OC[C@@H]3CCN(C)C3)nc3c2CCN(c2cccc4ccccc24)C3)CC1CC#N (stereo partly drawn) [Example 177, 2-[4-[2-[[(3R)-1-methylpyrrolidin-3-yl]methoxy]-7-(1-naphthyl)-6,8-dihydro-5H-pyrido[3,4-d]pyrimidin-4-yl]-1-prop-2-enoyl-piperazin-2-yl]acetonitrile] | 1 to 1000 nM |  |
| C (“C”>50% POC) | C=CC(=O)N1CCN(c2nc(OCCCN3CCOCC3)nc3c2CCN(c2c(C(F)(F)F)ccc4[nH]ncc24)C3)CC1 [Example 180, 1-[4-[2-(3-morpholinopropoxy)-7-[5-(trifluoromethyl)-1H-indazol-4-yl]-6,8-dihydro-5H-pyrido[3,4-d]pyrimidin-4-yl]piperazin-1-yl]prop-2-en-1-one] | 1 to 1000 nM |  |
| C (“C”>50% POC) | C=CC(=O)N1CCN(c2nc(OC[C@@H]3CCCN3C)nc3c2CCN(c2cc(O)cc4ccccc24)C3)CC1CC#N (stereo partly drawn) [Example 182, 2-[4-[7-(3-hydroxy-1-naphthyl)-2-[[(2S)-1-methylpyrrolidin-2-yl]methoxy]-6,8-dihydro-5H-pyrido[3,4-d]pyrimidin-4-yl]-1-prop-2-enoyl-piperazin-2-yl]acetonitrile] | 1 to 1000 nM |  |
| C (“C”>50% POC) | C=CC(=O)N1CCN(c2nc(OCCCN3C[C@H]4C[C@@H]3CO4)nc3c2CCN(c2cc(O)cc4ccccc24)C3)CC1 [Example 185, 1-(4-(2-(3-((1R,4R)-2-oxa-5-azabicyclo[2.2.1]heptan-5-yl)propoxy)-7-(3-hydroxynaphthalen-1-yl)-5,6,7,8-tetrahydropyrido[3,4-d]pyrimidin-4-yl)piperazin-1-yl)prop-2-en-1-one] | 1 to 1000 nM |  |
| C (“C”>50% POC) | C=CC(=O)N1CCN(c2nc(OCCCN3CCOCC3)nc3c2CCN(c2cc(O)cc4cccnc24)C3)CC1 [Example 205, 1-(4-(7-(6-hydroxyquinolin-8-yl)-2-(3-morpholinopropoxy)-5,6,7,8-tetrahydropyrido[3,4-d]pyrimidin-4-yl)piperazin-1-yl)prop-2-en-1-one] |  |  |
| C (“C”>50% POC) | C=CC(=O)N1CCN(c2nc(OCCCN3CC4CC4C3)nc3c2CCN(c2cc(O)cc4ccccc24)C3)CC1 (stereo not drawn) [Example 206, 1-(4-(2-(3-(3-azabicyclo[3.1.0]hexan-3-yl)propoxy)-7-(3-hydroxynaphthalen-1-yl)-5,6,7,8-tetrahydropyrido[3,4-d]pyrimidin-4-yl)piperazin-1-yl)prop-2-en-1-one] | 1 to 1000 nM |  |
| C (“C”>50% POC) | C=CC(=O)N1CCN(c2nc(OCCN3CCC[C@@H](F)C3)nc3c2CCN(c2cc(O)cc4ccccc24)C3)CC1 [Example 207, (R)-1-(4-(2-(2-(3-fluoropiperidin-1-yl)ethoxy)-7-(3-hydroxynaphthalen-1-yl)-5,6,7,8-tetrahydropyrido[3,4-d]pyrimidin-4-yl)piperazin-1-yl)prop-2-en-1-one] |  |  |
| C (“C”>50% POC) | C=CC(=O)N1CCN(c2nc(OCCCN3C[C@@H](F)[C@@H](F)C3)nc3c2CCN(c2cc(O)cc4ccccc24)C3)CC1 [Example 208, 1-(4-(2-(3-((3R,4S)-3,4-difluoropyrrolidin-1-yl)propoxy)-7-(3-hydroxynaphthalen-1-yl)-5,6,7,8-tetrahydropyrido[3,4-d]pyrimidin-4-yl)piperazin-1-yl)prop-2-en-1-one] |  |  |
| C (“C”>50% POC) | C=CC(=O)N1CCN(c2nc(OC[C@@H]3CCCN3C)nc3c2CCN(c2ccccc2C(F)(F)F)C3)CC1CC#N (stereo partly drawn) [Example 210, 2-(1-acryloyl-4-(2-(((S)-1-methylpyrrolidin-2-yl)methoxy)-7-(2-(trifluoromethyl)phenyl)-5,6,7,8-tetrahydropyrido[3,4-d]pyrimidin-4-yl)piperazin-2-yl)acetonitrile] | 1 to 1000 nM |  |
| C (“C”>50% POC) | C=CC(=O)N1CCN(c2nc(OC[C@@H]3CCCN3C)nc3c2CCN(c2c(C(C)C)ccc4[nH]ncc24)C3)CC1 [Example 248, (S)-1-(4-(7-(5-isopropyl-1H-indazol-4-yl)-2-((1-methylpyrrolidin-2-yl)methoxy)-5,6,7,8-tetrahydropyrido[3,4-d]pyrimidin-4-yl)piperazin-1-yl)prop-2-en-1-one] |  |  |

| Structure (SMILES) | POC (normalized percent of control, KRas G12C modification) [2] | IC50 [1, 3] | IC50 ([1]; NCI-H358, 3 h) |
| --- | --- | --- | --- |
| C=CC(=O)N1CCN(c2nc(OC[C@@H]3CCCN3C)nc3c2CCN(c2cccc4ccccc24)C3)CC1CC#N (stereo partly drawn) [Example 147, 2-[4-[2-[[(2S)-1-methylpyrrolidin-2-yl]methoxy]-7-(1-naphthyl)-6,8-dihydro-5H-pyrido[3,4-d]pyrimidin-4-yl]-1-prop-2-enoyl-piperazin-2-yl]acetonitrile] | C (“C”>50% POC) |  | 1 to 1000 nM |
| C=CC(=O)N1CCN(c2nc(OC[C@H]3CCCN3C)nc3c2CCN(c2cccc4ccccc24)C3)CC1CC#N (stereo partly drawn) [Example 183, 2-[4-[2-[[(2R)-1-methylpyrrolidin-2-yl]methoxy]-7-(1-naphthyl)-6,8-dihydro-5H-pyrido[3,4-d]pyrimidin-4-yl]-1-prop-2-enoyl-piperazin-2-yl]acetonitrile] | C (“C”>50% POC) |  | 1 to 1000 nM |
